Assay results from patent publication US9688651B2, “Geranyl geranyl acetone analogs and uses thereof” (NYKEN Holding B.V., priority 2012, dated 2017).
Entries after “also recorded” stand apart in the source; their conditions may differ.

Assays:
HSP70 [1] = assay: HSP70 protein boosting in HL-1 cardiomyocytes after mild heat shock (Western blot); format: cell-based, mouse; set-up: key to HSP boosting HL-1 cardiomyocytes Protein HSP70: 0 = no induction HSP levels; + = 2-10-fold induction; ++ = 10-30-fold induction; +++ = > 30-fold induction; settings: mild heat shock 44°C 10 min, then compound 10 μM for 6 hours; Western blot
Protocol: HL-1 atrial myocytes, a cell line derived from adult mouse atria were obtained from Dr. William Claycomb (Louisiana State University, New Orleans, La., USA). The myocytes were maintained in Complete Claycomb Medium (JRH, UK) supplemented with 100 μM norepinephrine stock (consisting of 10 mM norepinephrine (Sigma, The Netherlands) dissolved in 0.3 mM L-ascorbic acid (Sigma)), 4 mM L-glutamine (Gibco, The Netherlands) and 10% FBS (Sigma). The myocytes were cultured in flasks coated with 0.02% gelatin (Sigma), in a 5% CO2 atmosphere at 37° C.
HL-1 cardiomyocytes were subjected to a mild heat shock of 44° C. for 10 minutes. After a recovery of 10 minutes (37 degrees 5% CO2), compounds were added in a final concentration of 10 μM (dissolved in DMSO, final concentration 0.1%). To control myocytes, 0.1% DMSO was added. After six hours the cells were lysed in RIPA buffer and used for Western blotting as described previously.^3, 10
(§1) Western-blot analysis was performed as described previously^3, 10. Equal amount of protein in SDS-PAGE sample buffer was sonicated before separation on 10% PAA-SDS gels. After transfer to nitrocellulose membranes (Stratagene, The Netherlands), membranes were incubated with primary antibodies against HSP25 (Stressgen, The Netherlands, SPA-801, 1:1000), HSP27 (Stressgen, SPA-800, 1:1000), HSP70 (Stressgen, SPA-810, 1:1000), GAPDH (Affinity Reagents, The Netherlands) or PARP (Santa Cruz, The Netherlands, sc-7150, 1:500). Horseradish peroxidase-conjugated anti-mouse or anti-rabbit (Santa-Cruz Biotechnology, The Netherlands) was used as secondary antibody. Signals were detected by the ECL-detection method (Amersham, The Netherlands) and quantified by densitometry using GeneTools software from Syngene (The Netherlands).
Compounds were also screened for HSP70 boosting effects. Hereto, HL-1 cardiomyocytes were first subjected to a mild heat shock which activates the Heat Shock Factor. After the mild heat shock, compound (10 μM) was added to the medium of HL-1 cardiomyocytes for 6 hours, followed by determination of the HSP70 amount.

[2] = tested on: MCF-7 breast cancer cells; assay: MCF-7 cell death, ratio death/living cells (trypan blue); format: cell-based, human; set-up: key to Cell Death MCF-7 cancer cells Death/living 100 μM: 0 = no dead cells; + = P < 0.05; ++ = P < 0.01; +++ = P < 0.001; settings: for Cell Death MCF-7 cancer cells Death/living 100 μM: 16-20 hours, trypan blue; for cell death in MCF-7: 10 μM, 16 hours
Protocol: MCF-7 breast cancer cells were cultured in DMEM supplemented with 10% FCS. […] Ratio death and living cells was determined by using trypan blue staining of death cells. The cell pellets were lysed in RIPA buffer and used for Western blot analysis.
Since we observed that some compounds aggravate tachypacing-induced contractile dysfunction, we next investigated if these compounds can induce programmed cell death in a human breast cancer cell-line MCF-7. […] In total 28 compounds were tested for cell death. […] GGA was used as a control as well as non-treated MCF-7 cells. […] The findings indicate that GGA-like compounds which aggravate heart failure can induce programmed cell death in MCF-7 breast cancer cell-line.

HSP27 = HSP27 Western blot in MCF-7 cells; format: cell-based, human; set-up: key: + = P < 0.05; ++ = P < 0.01; +++ = P < 0.001; settings: MCF-7 lysate, 16-20 hours
Protocol: (§2) MCF-7 breast cancer cells were cultured in DMEM supplemented with 10% FCS. Test compounds were added to the medium in a final concentration of […] for 16-20 hours. Ratio death and living cells was determined by using trypan blue staining of death cells. The cell pellets were lysed in RIPA buffer and used for Western blot analysis.
as §1

HSP70 [3] = assay: HSP70 Western blot in MCF-7 cells; format: cell-based, human; set-up: key: + = P < 0.05; ++ = P < 0.01; +++ = P < 0.001; settings: MCF-7 lysate, 16-20 hours
Protocol: as §2, §1

PARP = PARP cleavage in MCF-7 cells (Western blot); format: cell-based, human; set-up: key to Cell Death MCF-7 cancer cells PARP: 0 = no dead cells; + = P < 0.05; ++ = P < 0.01; +++ = P < 0.001; settings: for Cell Death MCF-7 cancer cells PARP: MCF-7 lysate, Western blot, 16-20 hours; for PARP cleavage, indicative of pro-apoptotic caspase activation: MCF-7, 10 μM, 16 hours
Protocol: as §2, §1
Since we observed that some compounds aggravate tachypacing-induced contractile dysfunction, we next investigated if these compounds can induce programmed cell death in a human breast cancer cell-line MCF-7. Hereto, MCF-7 cells were incubated for 16 hours with 10 μM of a test compound after which the number of death and living cells was determined. In total 28 compounds were tested for cell death. […] GGA was used as a control as well as non-treated MCF-7 cells. […] The findings indicate that GGA-like compounds which aggravate heart failure can induce programmed cell death in MCF-7 breast cancer cell-line.

| SMILES | HSP boosting HL-1 cardiomyocytes Protein HSP70 (HSP70 [1]) | Cell Death MCF-7 cancer cells Death/living 100 μM [2] | Cell Death MCF-7 cancer cells HSP 27 (HSP27) | Cell Death MCF-7 cancer cells HSP 70 (HSP70 [3]) | Cell Death MCF-7 cancer cells PARP (PARP) | cell death in MCF-7 [2] | PARP cleavage, indicative of pro-apoptotic caspase activation (PARP) |
| --- | --- | --- | --- | --- | --- | --- | --- |
| CCC(=O)N(C/C=C(\C)CCC=C(C)C)C(=O)CC [Compound 103] | 0 | 0 | 0 | 0 | 0 | – | – |
| CCOC(=O)CC(C(=O)CC/C=C(\C)CCC=C(C)C)C(=O)OCC (centres unmarked) [Compound 89] | + (+ = 2-10-fold induction) | 0 | 0 | 0 | 0 | – | – |
| CC(C)=CCC/C(C)=C/CCc1cc(C)nn1-c1ccc(F)cc1 [Compound 39] | 0 | 0 | + (+ = P < 0.05) | 0 | 0 | – | – |
| CC(=O)NC/C=C(\C)CCC=C(C)C [Compound 43] | 0 | – | – | – | – | – | – |
| CC(C)=CCC/C(C)=C/CCc1cc(C)n(CCC#N)n1 [Compound 34] | 0 | – | – | – | – | – | – |
| CCCC(=O)NC/C=C(\C)CCC=C(C)C [Compound 91] | + (+ = 2-10-fold induction) | – | – | – | – | – | – |
| CC(C)=CCC/C(C)=C/CCc1cc(O)nn1Cc1ccccc1 [Compound 65] | 0 | ++ (++ = P < 0.01) | +++ (+++ = P < 0.001) | ++ (++ = P < 0.01) | ++ (++ = P < 0.01) | significant increase in cell death; also recorded: induce cell death | induced PARP cleavage |
| CC(C)=CCC/C(C)=C/CNC(=O)c1ccccc1O [Compound 101] | 0 | ++ (++ = P < 0.01) | 0 | – | ++ (++ = P < 0.01) | significant increase in cell death; also recorded: induce cell death | induced PARP cleavage |
| CC(C)=CCC/C(C)=C/CCc1cc(C)nn1-c1ccc(C#N)cc1 [Compound 41] | 0 | + (+ = P < 0.05) | + (+ = P < 0.05) | 0 | + (+ = P < 0.05) | significant increase in cell death; also recorded: induce cell death | induced PARP cleavage |
| CC(C)=CCC/C(C)=C/CCc1cc(C)n(C)n1 [Compound 33] | + (+ = 2-10-fold induction) | – | – | – | – | – | – |
| CCCC(C(=O)CC/C=C(\C)CCC=C(C)C)C(=O)OCC (centres unmarked) [Compound 70] | 0 | 0 | +++ (+++ = P < 0.001) | ++ (++ = P < 0.01) | 0 | – | – |
| CCNC(=O)NC/C=C(\C)CCC=C(C)C [Compound 44] | 0 | – | – | – | – | – | – |
| CCOC(=O)C(C)C(=O)CC/C=C(\C)CCC=C(C)C (centres unmarked) [Compound 22] | 0 | – | – | – | – | – | – |
| CCCC(=O)C(CC)C(=O)N(C/C=C(\C)CCC=C(C)C)C(=O)CCC (centres unmarked) [Compound 128] | 0 | – | – | – | – | – | – |
| CC(C)=CCC/C(C)=C/CNC(=O)Nc1cccc(F)c1 [Compound 45] | 0 | ++ (++ = P < 0.01) | 0 | – | ++ (++ = P < 0.01) | significant increase in cell death; also recorded: induce cell death | induced PARP cleavage |
| CCOC(=O)C(=O)NC/C=C(\C)CCC=C(C)C [Compound 97] | 0 | – | – | – | – | – | – |
| CC(C)=CCC/C(C)=C/CCc1cc(O)nn1C [Compound 64] | 0 | – | – | – | – | – | – |
| CCOC(=O)C(C/C=C(\C)CCC=C(C)C)C(C)=O (centres unmarked) [Compound 81] | 0 | – | – | – | – | – | – |
| CCCCCC(C(=O)CC/C=C(\C)CCC=C(C)C)C(=O)OCC (centres unmarked) [Compound 24] | 0 | – | – | – | – | – | – |
| CC(C)=CCC/C(C)=C/CCc1cc(C)n(CCO)n1 [Compound 35] | 0 | – | – | – | – | – | – |
| CC(C)=CCC/C(C)=C/Cc1c(O)c2ccccc2oc1=O [Compound 66] | 0 | 0 | + (+ = P < 0.05) | ++ (++ = P < 0.01) | + (+ = P < 0.05) | – | induced PARP cleavage |
| CC(C)=CCC/C(C)=C/CCc1cc(C)nn1-c1ccccc1F [Compound 40] | 0 | – | – | – | – | – | – |
| CCOC(=O)CC(=O)NC/C=C(\C)CCC=C(C)C [Compound 98] | 0 | 0 | ++ (++ = P < 0.01) | 0 | 0 | – | – |
| CC(C)=CCC/C(C)=C/CNC(=O)CS(C)(=O)=O [Compound 56] | 0 | 0 | 0 | 0 | 0 | – | – |
| CCCC(=O)N(C/C=C(\C)CCC=C(C)C)C(=O)CCC [Compound 127] | 0 | 0 | – | 0 | 0 | – | – |
| CCOC(=O)CC(=O)CC/C=C(\C)CCC=C(C)C [Compound 21, (E)-Ethyl 7,11-dimethyl-3-oxododeca-6,10-dienoate] | 0 | – | – | – | – | – | – |
| CC(C)=CCC/C(C)=C/CNS(=O)(=O)c1ccc(C)cc1 [Compound 53] | + (+ = 2-10-fold induction) | – | – | – | – | – | – |
| CCOC(=O)C(C(=O)CC/C=C(\C)CCC=C(C)C)C(C)C(=O)O (centres unmarked) [Compound 82] | 0 | – | – | – | – | – | – |
| CCOC(=O)C(=Cc1ccccc1)C(=O)CCC=C(C)CCC=C(C)C (mixture of isomers) [Compound 84] | + (+ = 2-10-fold induction) | – | – | – | – | – | – |
| CCOC(=O)C(CC(=O)O)C(=O)CC/C=C(\C)CCC=C(C)C (centres unmarked) [Compound 78] | 0 | 0 | ++ (++ = P < 0.01) | 0 | + (+ = P < 0.05) | – | induced PARP cleavage |
